# Reference: US20240018122A1, “PYRIDAZINYL AMINO DERIVATIVES AS ALK5 INHIBITORS” (CHIESI FARMACEUTICI S.P.A., priority 2020, published 2024)
# Target: human ALK5 (Homo sapiens (Human), UniProt P36897)
# Assay: ADP-GLO Kinases assay, inhibitory activity on ALK5
# Assay type: biochemical
# Conditions: purified recombinant human ALK5 2.6 nM, TGFβ1 peptide substrate, 25° C, 150 min incubation, ADP-Glo detection; read-out: ALK5 IC50
# Chain of human ALK5 (P36897 80-503 limits assumed): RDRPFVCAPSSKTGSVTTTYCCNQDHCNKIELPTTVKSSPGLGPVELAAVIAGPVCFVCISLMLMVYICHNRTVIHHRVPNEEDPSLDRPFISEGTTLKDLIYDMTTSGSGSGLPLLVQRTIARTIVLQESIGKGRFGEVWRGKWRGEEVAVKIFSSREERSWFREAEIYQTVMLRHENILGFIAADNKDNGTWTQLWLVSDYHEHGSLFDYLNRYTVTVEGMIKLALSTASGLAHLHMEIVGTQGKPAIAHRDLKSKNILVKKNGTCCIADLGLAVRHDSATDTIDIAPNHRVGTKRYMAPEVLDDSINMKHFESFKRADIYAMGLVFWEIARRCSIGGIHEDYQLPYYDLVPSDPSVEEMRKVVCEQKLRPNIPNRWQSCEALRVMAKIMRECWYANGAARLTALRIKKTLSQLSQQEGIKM
row,IC50 [µM],SMILES
1,6.29,"Fc1ccc(Cl)cc1-c1cc(Nc2nc3cccnc3[nH]2)cnn1 [Example C1, 6-(5-chloro-2-fluorophenyl)-N-{3H-imidazo[4,5-b]pyridin-2-yl}pyridazin-4-amine, reference compound]"
2,< 0.001,"CN1CCCN(CCC(=O)Nc2cc(Nc3cnnc(-c4cc(Cl)ccc4F)c3)ccn2)C1 [Example 33, N-(4-{[6-(5-Chloro-2-Fluorophenyl)Pyridazin-4-Yl]Amino}Pyridin-2-Yl)-3-(3-Methyl-1,3-Diazinan-1-Yl)Propanamide]"

row,SMILES,IC50 [µM]
1,"Cc1nnc(-c2cc(Cl)ccc2F)cc1Nc1ccnc(NC(=O)CCN2CC3CC(C2)N3C)c1 [Example 146, N-(4-{[6-(5-Chloro-2-Fluorophenyl)-3-Methylpyridazin-4-Yl]Amino}Pyridin-2-Yl)-3-{6-Methyl-3,6-Diazabicyclo[3.1.1]Heptan-3-Yl}Propanamide]",< 0.001
